Here are results for twelve compounds from patent US11142531B2, “Cyano substituted heteroarylpyrimidinone derivative, preparation method and use thereof” (ZHEJIANG HISUN PHARMACEUTICAL CO., LTD., priority 2017, dated 2021).

In data set [1] the target is recombinant human ACC1 (Homo sapiens (Human), UniProt Q13085). The experiment in a line: Inhibition of enzymatic activity of ACC1 (ADP-Glo chemiluminescence). The class given is biochemical. As to conditions: recombinant human ACC1 protein 2 nM, ATP 20 μM, acetyl-CoA 10 μM, NaHCO3 30 mM. As to the method:
(§1) The degree of inhibition of the enzymatic activity of recombinant human ACC1, ACC2 proteins under in-vitro conditions by the preferred compounds of the present disclosure is determined by the following method.
The principle of the method was based on the reaction of ACC protein-catalyzed acetyl-CoA to form malonyl-CoA. ATP was consumed during this reaction and ADP was produced. The produced ADP was reconverted into ATP by using ADP-Glo™ Kinase Kit from Promega. This part of ATP reacted with the luciferase-fluorescence in the kit, and generated chemiluminescent signals. Thus, by measuring the intensity of chemiluminescent signal, the amount of ADP produced in the catalytic reaction was reflected, thereby indirectly determining the enzymatic activity of ACC protein and the effect of the tested compound on the enzymatic activity. The main reagents used included ACC1, ACC2 proteins (purchased from BPS bioscience, ACC1 Art. No. 50200, ACC2 Art. No. 50201), acetyl-CoA (acetyl-CoA, purchased from Sigma, Art. No. A2056), NaHCO3 (purchased from Sigma, Art. No. S6014), ADP-Glo™ Kinase assay kit (purchased from Promega, Art. No. V9102).
The test procedure was briefly described as follows: firstly, a 1× buffer solution required for the reaction was prepared, comprising: 50 mM HEPES (pH7.4 purchased from Invitrogen, Art. No. 15630), 2 mM magnesium chloride (MgCl2, purchased from Sigma, Art. No. M1028), 2 mM potassium citrate (Potassium citrate, purchased from Sigma, Art. No. 89306), 0.01% Brij-35 detergent (purchased from Merck, Art. No. 203728), 2 mM DTT (purchased from Sigma, Art. No. D0632). The test compound powder was dissolved in DMSO to prepare a stock solution having a concentration of 10 mM, followed by three-fold dilution to prepare the concentration required for the test, and each compound was set at 10 concentration points ranging from 10 μm to 0.5 nM. Firstly, appropriate amount of ACC protein (2 nM) was added to a 384-well microplate, and then diluted test compound solutions were added to each well. A duplicate well was provided at each concentration, and a solution control group (blank group) and a negative control group (DMSO group) were set at the same time. The 384-well plates were then shaken on a microwell plate oscillator and incubated for 15 minutes at room temperature. Thereafter, a substrate mixture containing ATP, acetyl-CoA and NaHCO3 which was diluted with the aforementioned buffer solution was added to each well to start the reaction, and the final concentrations of the three components were respectively ATP 20 μM, acetyl-CoA 10 μM, and NaHCO3 30 mM. After reacting for 30 minutes at room temperature, the corresponding reaction solution and detection solution were added to each well according to the method in the specification of ADP-Glo™ Kinase assay kit (referring to the specification of the kit for specific methods). Finally, the relative light unit (RLU) values of each well were tested using an Envision 2104 multi-function microplate reader (Perkin Elmer). The percentage inhibition rate of a compound at a concentration on ACC enzyme activity was calculated by the following formula: Inhibition rate %=[(RLU average value of negative control wells−RLU average value of blank control wells)−(RLU average values of test wells−RLU average values of blank control wells)]/(RLU average values of negative control wells−RLU average values of blank control wells)*100
Finally, nonlinear regression analysis of the logarithm of the concentration of the compound and the percentage inhibition rate of the corresponding concentration was carried out in the GraphPad Prism5 software to obtain the half maximal inhibitory concentration (IC50) of the compound.

For data set [2], the target named is recombinant human ACC2 (Homo sapiens (Human), UniProt O00763). The data set can be described thus: Inhibition of enzymatic activity of ACC2 (ADP-Glo chemiluminescence). As to conditions: recombinant human ACC2 protein 2 nM, ATP 20 μM, acetyl-CoA 10 μM, NaHCO3 30 mM. The class given is biochemical. The protocol:
as §1
The principle of the method was based on the reaction of ACC protein-catalyzed acetyl-CoA to form malonyl-CoA. ATP was consumed during this reaction and ADP was produced. The produced ADP was reconverted into ATP by using ADP-Glo™ Kinase Kit from Promega. This part of ATP reacted with the luciferase-fluorescence in the kit, and generated chemiluminescent signals. […]
The test procedure was briefly described as follows: firstly, a 1× buffer solution required for the reaction was prepared, comprising: 50 mM HEPES (pH7.4 purchased from Invitrogen, Art. No. 15630), 2 mM magnesium chloride (MgCl2, purchased from Sigma, Art. No. M1028), 2 mM potassium citrate (Potassium citrate, purchased from Sigma, Art. No. 89306), 0.01% Brij-35 detergent (purchased from Merck, Art. No. 203728), 2 mM DTT (purchased from Sigma, Art. No. D0632). […] Finally, the relative light unit (RLU) values of each well were tested using an Envision 2104 multi-function microplate reader (Perkin Elmer). […]

Data set [3] in a line: Oral pharmacokinetic research in SD rats (plasma and liver, LC/MS/MS). The class given is in vivo. As to conditions: male, Sprague-Dawley (SD), rat, intragastric, 10 mg/kg. The protocol:
SD rat was used as the experimental animal. The drug concentrations in plasma and liver at different times were tested after the rats were intragastrically administered with the compound of Example 19 by LC/MS/MS methods, so as to research the pharmacokinetic characteristics of compound of present disclosure in rats.
An appropriate amount of experimental drug was weighed, and 0.5% sodium carboxymethylcellulose (CMC-Na) was added, and the mixture was milled to prepare a 1 mg/mL suspension;
6 healthy adult male rats were divided into 2 groups, fasted overnight and respectively intragastrically administered with the drug at a dosage of 10 mg/kg, at a volume of 10 mL/kg. The rats were feed 2 h after the administration.
Blood was collected by jugular vein puncture, and about 0.25 mL was collected for each sample, which was anticoagulated by using heparin sodium, and the samples were placed on ice after collection. The time points of blood collection were as follows:
The first group of animals: blood collection time: before administration, and 0.083 h, 0.25 h, 0.5 h, 1 h, 2 h, 4 h, 6 h, 8 h and 24 h after administration.
The second group of animals: the animals were euthanized 0.5 h after administration, and the liver tissues were collected, 3 rats/time point.
Blood samples were collected and placed on ice, and plasma was separated by centrifugation (centrifugation conditions: 8000 rpm, 6 min, 2-8° C.). The collected plasma was stored at −80° C. before analysis.
The content of the test compound in the plasma and liver of the rats after intragastrically administration was analyzed by LC-MS/MS.

Sequence of recombinant human ACC2 (O00763 whole entry): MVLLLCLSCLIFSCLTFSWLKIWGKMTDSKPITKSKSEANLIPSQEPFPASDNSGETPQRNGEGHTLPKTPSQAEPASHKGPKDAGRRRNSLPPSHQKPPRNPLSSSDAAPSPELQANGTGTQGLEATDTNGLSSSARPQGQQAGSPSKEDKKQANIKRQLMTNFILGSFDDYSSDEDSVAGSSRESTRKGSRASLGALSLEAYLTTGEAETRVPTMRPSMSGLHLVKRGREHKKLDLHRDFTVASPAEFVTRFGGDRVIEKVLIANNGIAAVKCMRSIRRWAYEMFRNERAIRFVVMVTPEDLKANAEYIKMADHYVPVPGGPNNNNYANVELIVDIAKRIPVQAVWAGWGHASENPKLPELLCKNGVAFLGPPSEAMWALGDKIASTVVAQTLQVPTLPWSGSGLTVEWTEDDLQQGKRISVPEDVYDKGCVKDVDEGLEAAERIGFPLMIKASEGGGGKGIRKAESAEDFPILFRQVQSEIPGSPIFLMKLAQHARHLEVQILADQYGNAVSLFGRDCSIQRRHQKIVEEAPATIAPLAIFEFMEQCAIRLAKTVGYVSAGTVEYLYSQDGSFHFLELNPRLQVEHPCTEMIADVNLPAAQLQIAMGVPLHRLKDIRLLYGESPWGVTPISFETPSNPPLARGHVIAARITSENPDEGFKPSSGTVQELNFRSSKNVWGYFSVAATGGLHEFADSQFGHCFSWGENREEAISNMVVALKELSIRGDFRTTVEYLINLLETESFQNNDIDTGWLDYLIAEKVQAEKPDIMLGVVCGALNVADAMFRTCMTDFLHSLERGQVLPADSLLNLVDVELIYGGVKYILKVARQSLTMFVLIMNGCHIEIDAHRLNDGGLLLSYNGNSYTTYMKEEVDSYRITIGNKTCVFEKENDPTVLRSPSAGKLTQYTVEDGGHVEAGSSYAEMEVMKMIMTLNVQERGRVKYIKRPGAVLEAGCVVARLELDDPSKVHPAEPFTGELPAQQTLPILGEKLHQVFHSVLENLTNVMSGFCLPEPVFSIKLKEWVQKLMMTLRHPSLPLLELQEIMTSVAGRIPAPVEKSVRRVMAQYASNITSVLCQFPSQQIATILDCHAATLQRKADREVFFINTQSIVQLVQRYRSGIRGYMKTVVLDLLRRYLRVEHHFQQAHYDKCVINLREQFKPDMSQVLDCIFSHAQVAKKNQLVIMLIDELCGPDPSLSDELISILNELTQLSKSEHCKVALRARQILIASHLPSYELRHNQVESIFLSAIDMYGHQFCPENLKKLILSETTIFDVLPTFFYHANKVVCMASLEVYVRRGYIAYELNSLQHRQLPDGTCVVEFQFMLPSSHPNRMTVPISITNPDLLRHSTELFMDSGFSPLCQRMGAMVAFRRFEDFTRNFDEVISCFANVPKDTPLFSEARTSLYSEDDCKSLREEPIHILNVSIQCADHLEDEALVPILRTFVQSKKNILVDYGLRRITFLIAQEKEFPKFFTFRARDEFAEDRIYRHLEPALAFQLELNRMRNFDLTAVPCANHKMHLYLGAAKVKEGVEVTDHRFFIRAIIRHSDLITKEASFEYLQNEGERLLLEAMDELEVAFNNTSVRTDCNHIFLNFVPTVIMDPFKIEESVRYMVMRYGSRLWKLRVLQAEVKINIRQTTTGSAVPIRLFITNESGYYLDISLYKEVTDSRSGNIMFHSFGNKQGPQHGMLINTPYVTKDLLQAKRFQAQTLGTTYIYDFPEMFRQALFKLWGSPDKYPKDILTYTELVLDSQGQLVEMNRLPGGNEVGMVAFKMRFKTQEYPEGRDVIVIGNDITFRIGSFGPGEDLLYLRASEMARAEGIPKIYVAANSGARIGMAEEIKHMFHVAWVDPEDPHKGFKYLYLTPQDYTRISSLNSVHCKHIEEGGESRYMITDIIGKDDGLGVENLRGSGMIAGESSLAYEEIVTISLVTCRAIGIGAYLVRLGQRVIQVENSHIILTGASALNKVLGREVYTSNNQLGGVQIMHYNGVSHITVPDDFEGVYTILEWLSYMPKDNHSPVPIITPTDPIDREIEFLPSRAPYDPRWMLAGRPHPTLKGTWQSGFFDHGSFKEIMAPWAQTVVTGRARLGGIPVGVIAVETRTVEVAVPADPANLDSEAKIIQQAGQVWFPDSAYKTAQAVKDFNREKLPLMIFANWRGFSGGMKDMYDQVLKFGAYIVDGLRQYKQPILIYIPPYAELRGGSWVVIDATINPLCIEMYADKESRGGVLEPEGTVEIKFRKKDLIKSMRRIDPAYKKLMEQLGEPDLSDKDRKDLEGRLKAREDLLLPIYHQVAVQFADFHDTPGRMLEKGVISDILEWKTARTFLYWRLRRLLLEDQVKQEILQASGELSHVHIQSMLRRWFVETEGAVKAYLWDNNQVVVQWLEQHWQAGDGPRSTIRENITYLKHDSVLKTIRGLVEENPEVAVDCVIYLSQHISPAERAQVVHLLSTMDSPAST

On to `COc1ccccc1[C@@H](Cn1c(=O)n(C(C)(C)C(=O)O)c(=O)c2c(C)c(C#N)sc21)OC1CCOCC1` [Example 2, (S)-2-(6-Cyano-1-(2-(2-methoxyphenyl)-2-((tetrahydro-2H-pyran-4-yl)oxy)ethyl)-5-methyl-2,4-dioxo-1,2-dihydrothiopheno[2,3-d]pyrimidin-3(4H)-yl)-2-methylpropionic acid], for which the IC50 in data set [1] was 16 nM.
Still for that read-out and setting: as for `COc1ccccc1[C@H](Cn1c(=O)n(C(C)(C)C(=O)O)c(=O)c2c(C)c(C#N)sc21)OC1CCOCC1` [Example 3, (R)-2-(6-cyano-1-(2-(2-methoxyphenyl)-2-((tetrahydro-2H-pyran-4-yl)oxy)ethyl)-5-methyl-2,4-dioxo-1,2-dihydrothiopheno[2,3-d]pyrimidin-3(4H)-yl)-2-methylpropionic acid], the figure is 11.6 nM; as for `COc1ccc(F)cc1C(Cn1c(=O)n(C(C)(C)C(=O)O)c(=O)c2c(C)c(C#N)sc21)OC1CCOCC1` (stereo not shown) [Example 4, 2-(6-Cyano-1-(2-(5-fluoro-2-methoxyphenyl)-2-((tetrahydro-2H-pyran-4-yl)oxy)ethyl)-5-methyl-2,4-dioxo-1,2-dihydrothiopheno[2,3-d]pyrimidin-3(4H)-yl)-2-methylpropionic acid], 16.5 nM; as for `Cc1c(C#N)sc2c1c(=O)n(C(C)(C)C(=O)O)c(=O)n2CC(OC1CCOCC1)c1cc(F)ccc1OCCF` (stereo not shown) [Example 14, 2-(6-Cyano-1-(2-(5-fluoro-2-(2-fluoroethoxy)phenyl)-2-((tetrahydro-2H-pyran-4-yl)oxy)ethyl)-5-methyl-2,4-dioxo-1,2-dihydrothiopheno[2,3-d]pyrimidin-3(4H)-yl)-2-methylpropionic acid], 7.9 nM.
Consider `Cc1c(C#N)sc2c1c(=O)n(C(C)(C)C(=O)O)c(=O)n2CC(OC1CCOCC1)c1ccccc1OCC1CC1` (stereo not shown) [Example 13, 2-(6-Cyano-1-(2-(2-(cyclopropylmethoxy)phenyl)-2-((tetrahydro-2H-pyran-4-yl)oxy)ethyl)-5-methyl-2,4-dioxo-1,2-dihydrothiopheno[2,3-d]pyrimidin-3(4H)-yl)-2-methylpropionic acid], for which, in data set [1], the IC50 stood at 36 nM.
On the same count and under the same terms, the value for `COc1ccccc1C(Cn1c(=O)n(C(C)(C)C(=O)O)c(=O)c2c(C)c(C#N)sc21)OC1CCOCC1` (stereo not shown) [Example 1, 2-(6-Cyano-1-(2-(2-methoxyphenyl)-2-((tetrahydro-2H-pyran-4-yl)oxy)ethyl)-5-methyl-2,4-dioxo-1,2-dihydrothiopheno[2,3-d]pyrimidin-3(4H)-yl)-2-methylpropionic acid] was 38 nM; that for `CCOc1ccc(F)cc1C(Cn1c(=O)n(C(C)(C)C(=O)O)c(=O)c2c(C)c(C#N)sc21)OC1CCOCC1` (stereo not shown) [Example 15, 2-(6-Cyano-1-(2-(2-ethoxy-5-fluorophenyl)-2-((tetrahydro-2H-pyran-4-yl)oxy)ethyl)-5-methyl-2,4-dioxo-1,2-dihydrothiopheno[2,3-d]pyrimidin-3(4H)-yl)-2-methylpropionic acid] was 4.4 nM.
On the same count and under the same terms, as for `Cc1c(C#N)sc2c1c(=O)n(C(C)(C)C(=O)O)c(=O)n2CC(OC1CCOCC1)c1cc(F)ccc1OCC#N` (stereo not shown) [Example 17, 2-(6-Cyano-1-(2-(2-(cyanomethoxy)-5-fluorophenyl)-2-((tetrahydro-2H-pyran-4-yl)oxy)ethyl)-5-methyl-2,4-dioxo-1,2-dihydrothiopheno[2,3-d]pyrimidin-3(4H)-yl)-2-methylpropionic acid], the figure is 20.7 nM; as for `CCOc1ccccc1C(Cn1c(=O)n(C(C)(C)C(=O)O)c(=O)c2c(C)c(C#N)sc21)OC1CCOCC1` (stereo not shown) [Example 6, 2-(6-Cyano-1-(2-(2-ethoxyphenyl)-2-((tetrahydro-2H-pyran-4-yl)oxy)ethyl)-5-methyl-2,4-dioxo-1,2-dihydrothiopheno[2,3-d]pyrimidin-3(4H)-yl)-2-methylpropionic acid], 21 nM.
Regarding `Cc1c(C#N)sc2c1c(=O)n(C(C)(C)C(=O)O)c(=O)n2C[C@H](OC1CCOCC1)c1cc(F)ccc1OCCF` [Example 21, (R)-2-(6-cyano-1-(2-(5-fluoro-2-(2-fluoroethoxy)phenyl)-2-((tetrahydro-2H-pyran-4-yl)oxy)ethyl)-5-methyl-2,4-dioxo-1,2-dihydrothiopheno[2,3-d]pyrimidin-3(4H)-yl)-2-methylpropionic acid], the half-maximal inhibitory concentration (IC50) in data set [2] is 22 nM; in data set [1] it was 6.4 nM.
In the case of `COc1ccc(F)cc1[C@H](Cn1c(=O)n(C(C)(C)C(=O)O)c(=O)c2c(C)c(C#N)sc21)OC1CCOCC1` [Example 11, (R)-2-(6-Cyano-1-(2-(5-fluoro-2-methoxyphenyl)-2-((tetrahydro-2H-pyran-4-yl)oxy)ethyl)-5-methyl-2,4-dioxo-1,2-dihydrothiopheno[2,3-d]pyrimidin-3(4H)-yl)-2-methylpropionic acid], the IC50 in data set [1] is 15 nM.
For the compound `CCOc1ccc(F)cc1[C@H](Cn1c(=O)n(C(C)(C)C(=O)O)c(=O)c2c(C)c(C#N)sc21)OC1CCOCC1` [Example 19, (R)-2-(6-cyano-1-(2-(2-ethoxy-5-fluorophenyl)-2-((tetrahydro-2H-pyran-4-yl)oxy)ethyl)-5-methyl-2,4-dioxo-1,2-dihydrothiopheno[2,3-d]pyrimidin-3(4H)-yl)-2-methylpropionic acid], the IC50 in data set [2] is 6 nM; in data set [1] it was 2.7 nM. In data set [3] (oral, liver, 0.5 h after administration, read-out: drug concentration in the liver), the concentration at 0.5 h stood at 46800 ± 14000 ng/mL. Moreover, the Cmax in data set [3] (po, plasma, read-out: Blood concentration Cmax) stood at 920 ± 362 ng/mL. Further, the AUC(0-inf) in data set [3] (po, plasma, read-out: Curve area AUC0-∞) worked out at 1940 ± 1190 ng·h/mL. Further, in data set [3] (po, plasma, read-out: Half-life period T½ (converted)), the half-life is 203 ± 39 min. Also, the mean residence time (MRT) in data set [3] (po, plasma, read-out: Residence time MRT) is 2.82 ± 0.34 h.
